ChEMBL document CHEMBL1134304, “Discovery of novel p-arylthio cinnamides as antagonists of leukocyte function-associated antigen-1/intercellular adhesion molecule-1 interaction. 4. Structure-activity relationship of substituents on the benzene ring of the cinnamide” (J Med Chem, 2001)

Legend:
[1] = biological target: T1, Intercellular adhesion molecule (ICAM-1), Integrin alpha-L/beta-2 (Homo sapiens, UniProt P05107+P20701); experiment: Inhibition of LFA-1 mediated JY-8 cell adhesion to ICAM-1, range (6-10); type: functional, cell-based
Integrin alpha-L [2] = biological target: T2, Integrin alpha-L (Homo sapiens, UniProt P20701); experiment: Inhibition of intercellular adhesion molecule-1 (ICAM-1) binding to recombinant LFA-1, range(6-9)
T2 sequence (P20701 whole entry): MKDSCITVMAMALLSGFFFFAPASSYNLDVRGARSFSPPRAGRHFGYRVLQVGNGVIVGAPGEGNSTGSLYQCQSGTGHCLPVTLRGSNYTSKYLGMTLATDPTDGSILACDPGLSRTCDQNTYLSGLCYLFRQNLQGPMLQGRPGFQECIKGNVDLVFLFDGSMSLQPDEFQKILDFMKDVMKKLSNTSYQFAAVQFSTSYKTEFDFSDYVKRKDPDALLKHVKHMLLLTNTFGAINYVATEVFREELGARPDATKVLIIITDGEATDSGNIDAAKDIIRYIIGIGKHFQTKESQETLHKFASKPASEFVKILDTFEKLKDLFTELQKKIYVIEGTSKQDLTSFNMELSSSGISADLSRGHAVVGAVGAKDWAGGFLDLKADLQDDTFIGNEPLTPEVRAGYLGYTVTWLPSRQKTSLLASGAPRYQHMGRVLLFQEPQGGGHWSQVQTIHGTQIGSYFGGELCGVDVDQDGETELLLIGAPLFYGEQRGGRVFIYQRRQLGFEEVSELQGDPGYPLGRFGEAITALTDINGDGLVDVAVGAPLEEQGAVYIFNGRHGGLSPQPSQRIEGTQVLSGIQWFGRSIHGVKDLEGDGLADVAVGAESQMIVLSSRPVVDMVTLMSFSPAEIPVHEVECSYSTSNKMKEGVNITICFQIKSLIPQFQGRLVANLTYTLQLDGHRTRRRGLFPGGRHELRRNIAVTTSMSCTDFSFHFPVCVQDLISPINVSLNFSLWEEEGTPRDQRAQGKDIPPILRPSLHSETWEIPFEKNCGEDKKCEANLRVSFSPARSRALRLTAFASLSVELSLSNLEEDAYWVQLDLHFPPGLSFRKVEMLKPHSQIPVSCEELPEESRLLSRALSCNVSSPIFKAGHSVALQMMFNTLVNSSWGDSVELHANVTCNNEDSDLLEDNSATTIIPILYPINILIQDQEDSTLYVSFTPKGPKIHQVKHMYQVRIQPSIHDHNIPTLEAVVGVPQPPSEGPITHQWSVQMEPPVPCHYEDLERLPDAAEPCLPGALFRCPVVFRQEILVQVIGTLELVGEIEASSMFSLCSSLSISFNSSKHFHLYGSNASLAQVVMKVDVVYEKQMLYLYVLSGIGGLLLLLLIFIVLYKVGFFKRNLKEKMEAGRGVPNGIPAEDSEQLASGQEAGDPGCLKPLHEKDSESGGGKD

Integrin alpha-L [3] = biological target: T2, Integrin alpha-L; experiment: Inhibition of intercellular adhesion molecule-1 (ICAM-1) binding to recombinant LFA-1
Integrin alpha-L [4] = biological target: T2, Integrin alpha-L; experiment: Inhibition of intercellular adhesion molecule-1 (ICAM-1) binding to recombinant LFA-1, range(120-140)
Integrin alpha-L [5] = biological target: T2, Integrin alpha-L
[6] = biological target: T1, Intercellular adhesion molecule (ICAM-1), Integrin alpha-L/beta-2; experiment: Inhibition of LFA-1 mediated JY-8 cell adhesion to ICAM-1, range (30-150); type: functional, cell-based
Integrin alpha-L [7] = biological target: T2, Integrin alpha-L; experiment: Inhibition of intercellular adhesion molecule-1 (ICAM-1) binding to recombinant LFA-1, range(30-60)
Integrin alpha-L [8] = biological target: T2, Integrin alpha-L; experiment: Inhibition of intercellular adhesion molecule-1 (ICAM-1) binding to recombinant LFA-1, range (260-270)
Integrin alpha-L [9] = biological target: T2, Integrin alpha-L; experiment: Inhibition of intercellular adhesion molecule-1 (ICAM-1) binding to recombinant LFA-1, range (6-19)
[10] = biological target: T1, Intercellular adhesion molecule (ICAM-1), Integrin alpha-L/beta-2; experiment: Inhibition of LFA-1 mediated JY-8 cell adhesion to ICAM-1, range (3-18); type: functional, cell-based
Integrin alpha-L [11] = biological target: T2, Integrin alpha-L; remark: listed apart in the source
[12] = biological target: T1, Intercellular adhesion molecule (ICAM-1), Integrin alpha-L/beta-2; experiment: Inhibition of LFA-1 mediated JY-8 cell adhesion to ICAM-1, range (30-170); type: functional, cell-based
Integrin alpha-L [13] = biological target: T2, Integrin alpha-L; experiment: Inhibition of intercellular adhesion molecule-1 (ICAM-1) binding to recombinant LFA-1, range(50-60)
Integrin alpha-L [14] = biological target: T2, Integrin alpha-L; experiment: Inhibition of intercellular adhesion molecule-1 (ICAM-1) binding to recombinant LFA-1, range (6-9)
[15] = biological target: T1, Intercellular adhesion molecule (ICAM-1), Integrin alpha-L/beta-2; experiment: Inhibition of LFA-1 mediated JY-8 cell adhesion to ICAM-1, range (2-9); type: functional, cell-based
[16] = biological target: T1, Intercellular adhesion molecule (ICAM-1), Integrin alpha-L/beta-2
Integrin alpha-L [17] = biological target: T2, Integrin alpha-L; remark: listed apart in the source
Integrin alpha-L [18] = biological target: T2, Integrin alpha-L; experiment: Inhibition of intercellular adhesion molecule-1 (ICAM-1) binding to recombinant LFA-1, range(100-110)
Integrin alpha-L [19] = biological target: T2, Integrin alpha-L; remark: listed apart in the source
[20] = biological target: T1, Intercellular adhesion molecule (ICAM-1), Integrin alpha-L/beta-2; remark: listed apart in the source
Integrin alpha-L [21] = biological target: T2, Integrin alpha-L; experiment: Inhibition of intercellular adhesion molecule-1 (ICAM-1) binding to recombinant LFA-1, range(760-2620)
Integrin alpha-L [22] = biological target: T2, Integrin alpha-L; experiment: Inhibition of intercellular adhesion molecule-1 (ICAM-1) binding to recombinant LFA-1, range (10400-11300)
Integrin alpha-L [23] = biological target: T2, Integrin alpha-L; experiment: Inhibition of intercellular adhesion molecule-1 (ICAM-1) binding to recombinant LFA-1, range(100-200)
[24] = biological target: T1, Intercellular adhesion molecule (ICAM-1), Integrin alpha-L/beta-2; experiment: Inhibition of LFA-1 mediated JY-8 cell adhesion to ICAM-1, range (100-600); type: functional, cell-based
Integrin alpha-L [25] = biological target: T2, Integrin alpha-L; experiment: Inhibition of intercellular adhesion molecule-1 (ICAM-1) binding to recombinant LFA-1, range(40-60)
Integrin alpha-L [26] = biological target: T2, Integrin alpha-L; remark: listed apart in the source

T1 sequence (P05362 whole entry, one chain of several, further chain): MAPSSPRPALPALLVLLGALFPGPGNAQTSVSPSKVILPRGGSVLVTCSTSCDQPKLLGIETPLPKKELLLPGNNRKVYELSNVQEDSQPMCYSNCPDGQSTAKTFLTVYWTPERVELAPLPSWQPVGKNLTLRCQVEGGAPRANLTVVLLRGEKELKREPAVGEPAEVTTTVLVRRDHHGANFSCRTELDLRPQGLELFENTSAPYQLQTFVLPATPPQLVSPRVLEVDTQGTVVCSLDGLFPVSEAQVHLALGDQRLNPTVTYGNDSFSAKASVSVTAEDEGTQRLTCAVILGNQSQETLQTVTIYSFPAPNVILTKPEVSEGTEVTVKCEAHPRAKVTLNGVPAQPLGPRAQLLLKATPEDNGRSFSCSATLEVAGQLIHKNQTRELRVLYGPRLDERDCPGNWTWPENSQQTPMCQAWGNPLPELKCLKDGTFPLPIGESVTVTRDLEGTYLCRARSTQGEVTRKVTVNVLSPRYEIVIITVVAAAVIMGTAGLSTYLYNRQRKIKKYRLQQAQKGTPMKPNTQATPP
T1 sequence (P05107 whole entry, one chain of several): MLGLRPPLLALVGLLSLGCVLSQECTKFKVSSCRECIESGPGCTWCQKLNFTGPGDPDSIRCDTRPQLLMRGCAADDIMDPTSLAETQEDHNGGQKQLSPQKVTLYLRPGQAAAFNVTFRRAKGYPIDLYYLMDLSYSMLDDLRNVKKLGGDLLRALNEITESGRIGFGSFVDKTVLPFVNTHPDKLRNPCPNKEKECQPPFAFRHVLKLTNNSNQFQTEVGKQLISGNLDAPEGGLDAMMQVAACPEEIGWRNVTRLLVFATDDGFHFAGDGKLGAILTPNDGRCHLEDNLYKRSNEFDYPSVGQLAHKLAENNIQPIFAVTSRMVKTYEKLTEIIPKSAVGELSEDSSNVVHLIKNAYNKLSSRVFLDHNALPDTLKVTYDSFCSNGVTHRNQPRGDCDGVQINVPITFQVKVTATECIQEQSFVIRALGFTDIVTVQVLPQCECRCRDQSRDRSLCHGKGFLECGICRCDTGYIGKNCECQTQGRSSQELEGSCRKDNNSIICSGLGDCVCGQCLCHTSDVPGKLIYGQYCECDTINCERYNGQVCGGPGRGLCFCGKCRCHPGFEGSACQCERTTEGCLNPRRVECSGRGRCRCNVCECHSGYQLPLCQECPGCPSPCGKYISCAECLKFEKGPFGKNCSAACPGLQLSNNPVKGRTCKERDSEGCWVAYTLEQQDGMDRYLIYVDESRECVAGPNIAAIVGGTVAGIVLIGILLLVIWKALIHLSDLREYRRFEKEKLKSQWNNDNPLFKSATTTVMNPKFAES

Q: Which IC50 [1] does the source give for `CC(=O)N1CCN(C(=O)/C=C/c2ccc(Sc3ccc4c(c3)OCCO4)c(Cl)c2Cl)CC1` here?
A: 0.008 µM

Q: And the IC50 (Integrin alpha-L [2])?
A: 0.007 µM

Q: For `COc1ccccc1Sc1cc(C)c(/C=C/C(=O)N2CCC(C(=O)O)CC2)cc1[N+](=O)[O-]`, which IC50 (Integrin alpha-L [3]) is on record?
A: > 20 µM

Q: How did the IC50 (Integrin alpha-L [4]) turn out when `CC(=O)N1CCN(C(=O)/C=C/c2ccc(Sc3ccc4c(c3)OCCO4)c([N+](=O)[O-])c2)CC1` was run?
A: 0.139 µM

Q: For `O=C(O)C1CCN(C(=O)/C=C/c2ccc(Sc3ccc4c(c3)OCCO4)c3ccccc23)CC1`, which IC50 (Integrin alpha-L [5]) is on record?
A: 0.295 µM

Q: For `CC(=O)N1CCN(C(=O)/C=C/c2ccc(Sc3ccc4c(c3)OCCO4)c(Cl)c2)CC1`, which IC50 [6] is on record?
A: 0.08 µM

Q: What about the IC50 (Integrin alpha-L [7]) of the same compound?
A: 0.04 µM

Q: With `COc1ccccc1Sc1ccc(/C=C/C(=O)N2CCC(C(=O)O)CC2)c(C(F)(F)F)c1` as the compound, how does the IC50 (Integrin alpha-L [8]) read?
A: 0.265 µM

Q: What does the source list for `CC(C)c1ccccc1Sc1ccc(/C=C/C(=O)N2CCC(C(=O)O)CC2)c(Cl)c1Cl`?
A: IC50 (Integrin alpha-L [9]): 0.01 µM; IC50 [10]: 0.006 µM

Q: For `O=C(/C=C/c1ccc(Sc2ccc3c(c2)OCCO3)c(C(F)(F)F)c1)N1CCOCC1`, which IC50 (Integrin alpha-L [11]) is on record?
A: 0.03 µM

Q: With `CC(=O)N1CCN(C(=O)/C=C/c2ccc(Sc3ccc4c(c3)OCCO4)c(C(F)(F)F)c2)CC1` as the compound, how does the IC50 [12] read?
A: 0.06 µM

Q: And the IC50 (Integrin alpha-L [13])?
A: 0.055 µM

Q: What does the source list for `O=C(O)C1CCN(C(=O)/C=C/c2ccc(Sc3ccc4c(c3)OCCO4)c(Cl)c2Cl)CC1`?
A: IC50 (Integrin alpha-L [14]): 0.007 µM; IC50 [15]: 0.006 µM

Q: Which results are given for `COc1ccccc1Sc1ccc(/C=C/C(=O)N2CCC(C(=O)O)CC2)c(C(F)(F)F)c1C(F)(F)F`?
A: IC50 [16]: 0.0001 µM; IC50 (Integrin alpha-L [17]): 0.005 µM

Q: `CC(=O)N1CCN(C(=O)/C=C/c2ccc(Sc3cccc(Cl)c3Cl)c([N+](=O)[O-])c2)CC1` was tested. Which IC50 (Integrin alpha-L [18]) did it give?
A: 0.105 µM

Q: For `O=C(O)C1CCN(C(=O)/C=C/c2ccc(Sc3ccc4c(c3)OCCO4)c(C(F)(F)F)c2C(F)(F)F)CC1`, which IC50 (Integrin alpha-L [19]) is on record?
A: 0.003 µM

Q: And the IC50 [20]?
A: 0.0005 µM

Q: Which IC50 (Integrin alpha-L [21]) does the source give for `COc1ccccc1Sc1ccc(/C=C/C(=O)N2CCC(C(=O)O)CC2)c(Cl)c1` here?
A: 1.4 µM

Q: With `COc1ccccc1Sc1ccc(/C=C/C(=O)N2CCN(C(C)=O)CC2)cc1OC` as the compound, how does the IC50 (Integrin alpha-L [22]) read?
A: 10.7 µM

Q: Which IC50 (Integrin alpha-L [23]) does the source give for `CC(=O)N1CCN(C(=O)/C=C/c2ccc(Sc3ccc(Cl)cc3Cl)c(Cl)c2)CC1` here?
A: 0.14 µM

Q: What about the IC50 [24] of the same compound?
A: 0.13 µM

Q: `O=C(O)C1CCN(C(=O)/C=C/c2ccc(Sc3ccc4c(c3)OCCO4)c(C(F)(F)F)c2)CC1` was tested. Which IC50 (Integrin alpha-L [25]) did it give?
A: 0.05 µM

Q: For `CC(C)c1ccccc1SC1=CC=C(/C=C/C(=O)N2CCC(C(=O)O)CC2)C(F)C1F` (stereo unspecified), which IC50 (Integrin alpha-L [26]) is on record?
A: 0.115 µM
